pIC50: −log10 of the molar value.
How the values were obtained:
MEK1/2 = details: cited from earlier work
melanoma cells (M14) = assay: Cell number, mitochondrial inhibitors combined with PLX4720
Protocol: (§1) Melanoma cell were treated for 24 h with PLX4720 then mitochondrial uncoupler for 48 h, prior to estimation of cell number.
as §1
Cell number was calculated using the CYQUANT® assay (INVITROGEN™) or crystal violet staining. Lactate measurements were done using the Lactate Assay (BioVision or SIGMA®) per manufacturer's protocols. Indicated cell lines were plated in complete media overnight. Media was changed to serum free-media to avoid interference with the assay for 16 h with either PLX4720 (3 μM) or PLX4032 (1 μM) or vehicle control prior to harvesting cells and measurement of lactate. Results were normalized to cell number. All assays were performed in logarithmically growing cells.

MEK = details: cited from earlier work
melanoma cell lines [1] = assay: phospho-ERK Western blot, MEK inhibitor; type: cell-based; details: 10 nM, 24 h; all cell lines tested, including BRAF wild-type MeWo
Protocol: Whole cell lysates were prepared in lysis buffer supplemented with protease and phosphatase inhibitors (Roche). Equal amounts of protein were resolved by electrophoresis on gradient gels (Bio-Rad).
Antibodies used were as follows: MITF (C5 hybridoma); PGC1α (Calbiochem); α-tubulin (clone DM1A, Sigma); GAPDH, phospho-ERK1/2, and ERK1/2 (Cell Signaling Technology). Melanoma biopsies prior and during treatment were sectioned, embedded in paraffin and stained with the phospho-ERK1/2 antibody (Cell Signaling Technology). PLX4720 was used at 1 μM concentration in all assays, whereas control samples were treated with an equal volume of DMSO.

[2] = system: 12 breast, lung, colon and melanoma cell lines; assay: Public microarray (GSE10086) of PGC1α mRNA; details: 10 nM, 24 h; p<0.0001
melanoma cell lines [3] = assay: PGC1α mRNA by quantitative PCR, MEK inhibitor; details: 10 nM, 24 h; all cell lines tested, including BRAF wild-type MeWo
[4] = system: TRPM1 and other direct targets of MITF; assay: Expression of MITF targets (microarray, qtPCR); details: published microarrays and qtPCR
[5] = system: BRAF-mutant non-melanomas; assay: Gene set enrichment analysis of non-melanomas treated with PD0325901
melanoma cell lines [6] = assay: Gene set enrichment analysis of melanoma cell lines treated with PD0325901
KIT mutated melanoma = details: case reports, retrospective and phase II studies; cited from earlier work
apoptosis = assay: Apoptosis, tigecycline with PLX4720; type: cell-based; details: combination with PLX4720
[7] = PD0325901, non-melanomas (N=7), gene set size 16
[8] = PD0325901, non-melanomas (N=7), gene set size 17
[9] = PD0325901, non-melanomas (N=7), gene set size 19
[10] = PD0325901, non-melanomas (N=7), gene set size 21
[11] = PD0325901, non-melanomas (N=7), gene set size 22
[12] = PD0325901, non-melanomas (N=7), gene set size 27
[13] = PD0325901, non-melanomas (N=7), gene set size 29
[14] = PD0325901, non-melanomas (N=7), gene set size 53
[15] = PD0325901, non-melanomas (N=7), gene set size 55
[16] = PD0325901, non-melanomas (N=7), gene set size 65
[17] = PD0325901, non-melanomas (N=7), gene set size 66
[18] = PD0325901, non-melanomas (N=7), gene set size 73
[19] = PD0325901 treated melanoma cell lines (n = 5), gene set size 15
[20] = PD0325901 treated melanoma cell lines (n = 5), gene set size 17
[21] = PD0325901 treated melanoma cell lines (n = 5), gene set size 19
[22] = PD0325901 treated melanoma cell lines (n = 5), gene set size 20
[23] = PD0325901 treated melanoma cell lines (n = 5), gene set size 21
[24] = PD0325901 treated melanoma cell lines (n = 5), gene set size 22
[25] = PD0325901 treated melanoma cell lines (n = 5), gene set size 24
[26] = PD0325901 treated melanoma cell lines (n = 5), gene set size 28
[27] = PD0325901 treated melanoma cell lines (n = 5), gene set size 44
[28] = PD0325901 treated melanoma cell lines (n = 5), gene set size 49
[29] = PD0325901 treated melanoma cell lines (n = 5), gene set size 55
[30] = PD0325901 treated melanoma cell lines (n = 5), gene set size 76
[31] = PD0325901 treated melanoma cell lines (n = 5), gene set size 107

**Q.** With `Cc1cc(C(=O)NOCCO)c(Nc2ccc(I)cc2F)n(C)c1=O` [AZD8330] as the compound, how does the pIC50 (MEK1/2) read?
**A.** 8.15

**Q.** With `N#CC(C#N)=NNc1cccc(Cl)c1` [CCCP] as the compound, how does the “sensitivity of cells to the agent alone” value (melanoma cells (M14); M14 cells, 72 hrs) read?
**A.** relatively insensitive

**Q.** Which results are given for `O=C(NOC[C@H](O)CO)c1ccc(F)c(F)c1Nc1ccc(I)cc1F` [PD0325901]?
**A.** ERK phosphorylation (melanoma cell lines [1]): Suppression; PGC1α mRNA (public microarray) [2]: only affected PGC1α mRNA in melanoma cell lines; PGC1α mRNA (melanoma cell lines [3]): induction; expression of TRPM1 and other direct targets of MITF [4]: induced; enrichment of oxidative phosphorylation or citric acid cycle gene sets ([5]; BRAF-mutant non-melanomas treated with PD0325901): no enrichment; ES, INSULIN_NIH3T3_UP [5, 7]: −0.6535; NES, INSULIN_NIH3T3_UP [5, 7]: −1.926; ES, ERK5PATHWAY [5, 8]: −0.4831; ES, SCHURINGA_STAT5A_DN [5, 8]: −0.6396; NES, ERK5PATHWAY [5, 8]: −1.639; NES, SCHURINGA_STAT5A_DN [5, 8]: −1.67; ES, PASSERINI_OXIDATION [5, 9]: −0.5358; NES, PASSERINI_OXIDATION [5, 9]: −1.657; ES, LOTEM_LEUKEMIA_UP [5, 10]: −0.6144; ES, ST_GA12_PATHWAY [5, 10]: −0.5512; NES, LOTEM_LEUKEMIA_UP [5, 10]: −1.935; NES, ST_GA12_PATHWAY [5, 10]: −1.683; ES, MPRPATHWAY [5, 11]: −0.5726; NES, MPRPATHWAY [5, 11]: −1.724; ES, HSA00566_ETHER_LIPID_METABOLISM [5, 12]: −0.6099; ES, HSA00591_LINOLEIC_ACID_METABOLISM [5, 12]: −0.6262; NES, HSA00566_ETHER_LIPID_METABOLISM [5, 12]: −1.836; NES, HSA00591_LINOLEIC_ACID_METABOLISM [5, 12]: −1.85; ES, HDACPATHWAY [5, 13]: −0.524; NES, HDACPATHWAY [5, 13]: −1.695; ES, HDACI_COLON_CLUSTER9 [5, 14]: −0.4566; NES, HDACI_COLON_CLUSTER9 [5, 14]: −1.716; ES, HSA00010_GLYCOLYSIS_AND_GLUCONEOGENESIS [5, 15]: −0.4307; NES, HSA00010_GLYCOLYSIS_AND_GLUCONEOGENESIS [5, 15]: −1.651; ES, MUNSHI_MM_UP [5, 16]: −0.4503; NES, MUNSHI_MM_UP [5, 16]: −1.811; ES, HSA04370_VEGF_SIGNALING_PATHWAY [5, 17]: −0.4932; NES, HSA04370_VEGF_SIGNALING_PATHWAY [5, 17]: −1.946; ES, HSA04664_FC_EPSILON_RI_SIGNALING_PATHWAY [5, 18]: −0.4516; NES, HSA04664_FC_EPSILON_RI_SIGNALING_PATHWAY [5, 18]: −1.711; ES, SARCOMAS_LEIOMYOSARCOMA_CALP_UP (melanoma cell lines [6]; [19]): −0.5939; NES, SARCOMAS_LEIOMYOSARCOMA_CALP_UP (melanoma cell lines [6]; [19]): −1.618; ES, TIS7_OVEREXP_DN (melanoma cell lines [6]; [20]): −0.6059; NES, TIS7_OVEREXP_DN (melanoma cell lines [6]; [20]): −1.666; ES, ATP_SYNTHESIS (melanoma cell lines [6]; [21]): −0.5886; ES, FLAGELLAR_ASSEMBLY (melanoma cell lines [6]; [21]): −0.5886; ES, TYPE_III_SECRETION_SYSTEM (melanoma cell lines [6]; [21]): −0.5886; NES, ATP_SYNTHESIS (melanoma cell lines [6]; [21]): −1.651; NES, FLAGELLAR_ASSEMBLY (melanoma cell lines [6]; [21]): −1.651; NES, TYPE_III_SECRETION_SYSTEM (melanoma cell lines [6]; [21]): −1.651; ES, PHOTOSYNTHESIS (melanoma cell lines [6]; [22]): −0.5675; NES, PHOTOSYNTHESIS (melanoma cell lines [6]; [22]): −1.596; ES, PHENYLALANINE_METABOLISM (melanoma cell lines [6]; [23]): −0.5653; NES, PHENYLALANINE_METABOLISM (melanoma cell lines [6]; [23]): −1.644; ES, BRENTANI_CYTOSKELETON (melanoma cell lines [6]; [24]): −0.5522; NES, BRENTANI_CYTOSKELETON (melanoma cell lines [6]; [24]): −1.762; ES, LIAN_MYELOID_DIFF_GRANULE (melanoma cell lines [6]; [25]): −0.6115; NES, LIAN_MYELOID_DIFF_GRANULE (melanoma cell lines [6]; [25]): −1.565; ES, TYROSINE_METABOLISM (melanoma cell lines [6]; [26]): −0.5609; NES, TYROSINE_METABOLISM (melanoma cell lines [6]; [26]): −1.668; ES, HPV31_DN (melanoma cell lines [6]; [27]): −0.511; NES, HPV31_DN (melanoma cell lines [6]; [27]): −1.584; ES, GLUCONEOGENESIS (melanoma cell lines [6]; [28]): −0.455; NES, GLUCONEOGENESIS (melanoma cell lines [6]; [28]): −1.548; ES, OXIDATIVE_PHOSPHORYLATION (melanoma cell lines [6]; [29]): −0.5314; NES, OXIDATIVE_PHOSPHORYLATION (melanoma cell lines [6]; [29]): −1.765; ES, VANASSE_BCL2_TARGETS (melanoma cell lines [6]; [30]): −0.3981; NES, VANASSE_BCL2_TARGETS (melanoma cell lines [6]; [30]): −1.55; ES, TPA_RESIST_MIDDLE_DN (melanoma cell lines [6]; [31]): −0.3946; NES, TPA_RESIST_MIDDLE_DN (melanoma cell lines [6]; [31]): −1.586; citric acid cycle and oxidative phosphorylation gene sets (melanoma cell lines [6]; melanoma cells treated with PD0325901): trend towards induction

**Q.** With `Cn1c(=O)c(F)c(Nc2ccc(I)cc2F)c2c(=O)n(C[C@@H](O)CO)cnc21` [TAK-733] as the compound, how does the pIC50 (MEK) read?
**A.** 8.49

**Q.** Which “Combination Index with PLX4720 (additively enhanced the efficacy of PLX4720)” value (melanoma cells (M14); in vitro, cell number after 72 hrs) does the source give for `CC[C@@H]1/C=C/C=C/C[C@H](C)[C@H](O)[C@](C)(O)C(=O)[C@H](C)[C@@H](O)[C@H](C)C(=O)[C@H](C)[C@@H](O)[C@H](C)/C=C/C(=O)O[C@H]2[C@@H](C)[C@@H](CC1)O[C@@]1(CC[C@@H](C)[C@@H](C[C@H](C)O)O1)[C@@H]2C` [oligomycin A] here?
**A.** 0.9

**Q.** For `CNC(=O)c1cc(Oc2ccc(NC(=O)Nc3ccc(Cl)c(C(F)(F)F)c3)cc2)ccn1` [sorafenib], which clinical responses (KIT mutated melanoma) is on record?
**A.** clinical responses

**Q.** With `CN(C)c1cc(NC(=O)CNC(C)(C)C)c(O)c2c1C[C@H]1C[C@H]3[C@H](N(C)C)C(O)=C(C(N)=O)C(=O)[C@@]3(O)C(O)=C1C2=O` [tigecycline, N-[(5aR,6aS,7S,9Z,10aS)-9-[amino(hydroxy)methylidene]-4,7-bis(dimethylamino)-1,10a,12-trihydroxy-8,10,11-trioxo-5,5a,6,6a,7,8,9,10,10a,11-decahydrotetracen-2-yl]-2-(tert-butylamino)acetamide] as the compound, how does the “apoptosis induced by BRAF inhibitor PLX4720” value (apoptosis) read?
**A.** strongly potentiates apoptosis

Source: patent US9937161B2, “Combinatorial compositions and methods for treatment of melanoma” (THE GENERAL HOSPITAL CORPORATION, priority 2013, dated 2018)
